Measured values taken from PubChem BioAssay AID2060898 (Molecular Pharmacology Branch, DTP, NCI, 2025).

System: 616215-338-R-J1-PDC complex spheroid viability
Assay: Anticancer human tumor 616215-338-R-J1-PDC patient-derived colon adenocarcinoma cell line growth inhibition [RAS]
Conditions: for IC50: curve of first compound; for viability, T/C: stronger effect = lower value
Source text: RAS pathway inhibitors in Combinations in Complex Spheroids
A high-throughput screen of multi-cell type tumor spheroids was designed to identify active combinations of RAS pathway inhibitors and targeted small molecules. Complex spheroids include a stromal component modeled by human endothelial cells (HUVEC) and fibroblasts modeled by human mesenchymal stem cells (MSCs). The concentration ranges selected for each drug and investigational agent were based upon clinically achievable concentrations if the clinical Cmax of the agent was known.
Compounds. The drugs and investigational agents: abemaciclib (NSC768073), cobimetinib (NSC768068), divarasib (GDC6063, NSC841802), docetaxel (NSC628503), GDC-1971 (RLY-1971, NSC841576), gemcitabine (NSC613327), inavolisib (NSC800729), ipatasertib (NSC767898), KB-0742 (NSC834161), MRTX-1133 (NSC836407), osimertinib (NSC779217), RMC-4630 (NSC839698), RMC-6236 (NSC851965), RMC-6291 (NSC852671), Ro-3306 (NSC812927), sapanisertib (NSC764658), SN-38 (NSC673596), staurosporine (NSC755774), SY5609 (NSC837396), and tovorafenib (DAY101, NSC766906), were obtained from the National Cancer Institute (NCI) Developmental Therapeutics Program Chemical Repository. The FDA-approved anticancer drug set is available from the NCI Developmental Therapeutics Program. […] The stock solutions were prepared in dimethyl sulfoxide (DMSO, Sigma-Aldrich, St. Louis, MO, cat. D2650) at 800-fold the tested concentration and stored at -70 degrees C prior to their use. All drugs and investigational agents were tested over a range starting from a high concentration at or near the clinical Cmax and decreasing in half-log increments. If the clinical Cmax for an agent had not been determined, the highest concentration tested was 10 microM.
Cell Culture. All cells were maintained in an incubator at 37 degrees C and 5% CO2 with 95% humidity. The PDC lines were cultured according to standard operating procedures established by the NCI PDMR. All PDCs were thawed and cultured in Matrigel-coated flasks prepared with a working solution of 1X Ham's F-12 nutrient mix, without supplementation (Invitrogen, Waltham, MA, cat. 11765054), 100 U/mL penicillin-streptomycin (Invitrogen, cat. 15140122), and 2.5% Matrigel (Corning Inc., Corning, NY, cat. 354248) for the first three passages. The 362531-283-R-J2-PDC and 782815-120-R-J1-PDC lines were cultured in 6C/Colon 1B media, which includes advanced DMEM/F-12 (Thermo Fisher Scientific, cat. 12634028), 10 mM HEPES (Thermo Fisher Scientific, cat. 15630080), 1X GlutaMAX supplement (Thermo Fisher Scientific, cat. 35050061), 0.1 mg/mL primocin (InvivoGen, San Diego, CA, cat. ant-pm-2), 10% defined fetal bovine serum, heat inactivated (HyClone Laboratories Inc., Logan, UT, cat. SH30070.03HI), 50% L-WRN conditioned media (ATCC, cat. CRL-3276), 1.25 mM N-Acetyl-L-cysteine (Sigma-Aldrich, cat. A9165), 10 mM nicotinamide (Sigma-Aldrich, cat. N0636), 1X B-27 supplement (Thermo Fisher Scientific, cat. 17504044), 1X N-2 supplement (Thermo Fisher Scientific, cat. 17502048), 50 ng/mL human EGF (Thermo Fisher Scientific, cat. PHG0311), and 10 microM Y-27632 dihydrochloride (Tocris Bioscience, cat. 1254). The K12877-001-R-J1-PDC line was cultured in 6I media, which includes all 6C/Colon 1B media plus 10 ng/mL human FGF-10 (PeproTech, cat. 100-26), 1 ng/mL human FGF-2 (PeproTech, cat. 100-18B), 1 µM prostaglandin E2 (Tocris Bioscience, cat. 2296), […] hydrocortisone (Sigma-Aldrich, cat. H4001), and […] bovine insulin (Sigma-Aldrich, cat. I6634). The K86415-001-R-J1-PDC line was cultured in 6D media, which includes all 6C/Colon 1B media components minus the L-WRN conditioned media. The 485176-168-R4-J1-PDC was cultured in PANC media, which includes all 6C/Colon 1B media plus 100 ng/mL human FGF-10 (PeproTech, cat. 100-26), 500 nM SB-431542 (Selleckchem, cat. S1067), and 10 nM gastrin (Tocris Bioscience, cat. 3006). […]

[1] = second compound 0.0316 µM, first compound 0.0316 µM
[2] = second compound 0.0316 µM, first compound 0.1 µM
[3] = second compound 0.0316 µM, first compound 0.316 µM
[4] = second compound 0.0316 µM, first compound 1 µM
[5] = second compound 0.1 µM, first compound 0.0316 µM
[6] = second compound 0.1 µM, first compound 0.1 µM
[7] = second compound 0.1 µM, first compound 0.316 µM
[8] = second compound 0.1 µM, first compound 1 µM
[9] = second compound 0.316 µM, first compound 0.0316 µM
[10] = second compound 0.316 µM, first compound 0.1 µM
[11] = second compound 0.316 µM, first compound 0.316 µM
[12] = second compound 0.316 µM, first compound 1 µM
[13] = second compound 1 µM, first compound 0.0316 µM
[14] = second compound 1 µM, first compound 0.1 µM
[15] = second compound 1 µM, first compound 0.316 µM
[16] = second compound 1 µM, first compound 1 µM
[17] = second compound 3.16 µM, first compound 0.0316 µM
[18] = second compound 3.16 µM, first compound 0.1 µM
[19] = second compound 3.16 µM, first compound 0.316 µM
[20] = second compound 3.16 µM, first compound 1 µM
[21] = second compound 10 µM, first compound 0.0316 µM
[22] = second compound 10 µM, first compound 0.1 µM
[23] = second compound 10 µM, first compound 0.316 µM
[24] = second compound 10 µM, first compound 1 µM
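Further: spheroids exposed to agents for seven days before viability readout.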
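Wherever viability, T/C is given: 100% = DMSO vehicle control viability.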

CCN1CCN(Cc2ccc(Nc3ncc(F)c(-c4cc(F)c5nc(C)n(C(C)C)c5c4)n3)nc2)CC1 + C#Cc1c(F)ccc2cc(O)cc(-c3ncc4c(N5CC6CCC(C5)N6)nc(OCC56CCCN5CC(F)C6)nc4c3F)c12
IC50 (second compound 0.0316 µM): > 1 µM
IC50 (second compound 0.1 µM): > 1 µM
IC50 (second compound 0.316 µM): 0.874 µM
IC50 (second compound 1 µM): 0.693 µM
IC50 (second compound 3.16 µM): 0.175 µM
IC50 (second compound 10 µM): 0.0309 µM
viability, T/C (second compound 0.0316 µM, first compound 0.00316 µM): 96.4%
viability, T/C (second compound 0.0316 µM, first compound 0.01 µM): 117%
viability, T/C [1]: 120%
viability, T/C [2]: 108%
viability, T/C [3]: 131%
viability, T/C [4]: 53.2%
viability, T/C (second compound 0.1 µM, first compound 0.00316 µM): 97.9%
viability, T/C (second compound 0.1 µM, first compound 0.01 µM): 110%
viability, T/C [5]: 113%
viability, T/C [6]: 124%
viability, T/C [7]: 129%
viability, T/C [8]: 50.8%
viability, T/C (second compound 0.316 µM, first compound 0.00316 µM): 105%
viability, T/C (second compound 0.316 µM, first compound 0.01 µM): 110%
viability, T/C [9]: 121%
viability, T/C [10]: 120%
viability, T/C [11]: 112%
viability, T/C [12]: 41.7%
viability, T/C (second compound 1 µM, first compound 0.00316 µM): 120%
viability, T/C (second compound 1 µM, first compound 0.01 µM): 118%
viability, T/C [13]: 130%
viability, T/C [14]: 88%
viability, T/C [15]: 74.2%
viability, T/C [16]: 39.7%
viability, T/C (second compound 3.16 µM, first compound 0.00316 µM): 90.8%
viability, T/C (second compound 3.16 µM, first compound 0.01 µM): 98.1%
viability, T/C [17]: 70%
viability, T/C [18]: 58.2%
viability, T/C [19]: 44.6%
viability, T/C [20]: 30.9%
viability, T/C (second compound 10 µM, first compound 0.00316 µM): 76.1%
viability, T/C (second compound 10 µM, first compound 0.01 µM): 58.5%
viability, T/C [21]: 51.9%
viability, T/C [22]: 35.5%
viability, T/C [23]: 39.3%
viability, T/C [24]: 23.9%

C[C@@H](NC(=O)c1ncnc(N)c1Cl)c1ncc(C(=O)Nc2cc(C(F)(F)F)c(Cl)cn2)s1 + C#Cc1c(F)ccc2cc(O)cc(-c3ncc4c(N5CC6CCC(C5)N6)nc(OCC56CCCN5CC(F)C6)nc4c3F)c12
IC50 (second compound 0.0316 µM): > 10 µM
IC50 (second compound 0.1 µM): > 10 µM
IC50 (second compound 0.316 µM): 9.71 µM
IC50 (second compound 1 µM): 5.99 µM
IC50 (second compound 3.16 µM): 3.61 µM
IC50 (second compound 10 µM): 0.758 µM
viability, T/C [1]: 120%
viability, T/C [2]: 109%
viability, T/C [3]: 109%
viability, T/C [4]: 109%
viability, T/C (second compound 0.0316 µM, first compound 3.16 µM): 86.8%
viability, T/C (second compound 0.0316 µM, first compound 10 µM): 55.2%
viability, T/C [5]: 104%
viability, T/C [6]: 111%
viability, T/C [7]: 108%
viability, T/C [8]: 109%
viability, T/C (second compound 0.1 µM, first compound 3.16 µM): 90.8%
viability, T/C (second compound 0.1 µM, first compound 10 µM): 52.2%
viability, T/C [9]: 111%
viability, T/C [10]: 113%
viability, T/C [11]: 121%
viability, T/C [12]: 117%
viability, T/C (second compound 0.316 µM, first compound 3.16 µM): 87.9%
viability, T/C (second compound 0.316 µM, first compound 10 µM): 49%
viability, T/C [13]: 109%
viability, T/C [14]: 112%
viability, T/C [15]: 108%
viability, T/C [16]: 91.5%
viability, T/C (second compound 1 µM, first compound 3.16 µM): 68.3%
viability, T/C (second compound 1 µM, first compound 10 µM): 35.8%
viability, T/C [17]: 99.3%
viability, T/C [18]: 111%
viability, T/C [19]: 72.3%
viability, T/C [20]: 82.2%
viability, T/C (second compound 3.16 µM, first compound 3.16 µM): 52.2%
viability, T/C (second compound 3.16 µM, first compound 10 µM): 24.3%
viability, T/C [21]: 84.3%
viability, T/C [22]: 69.7%
viability, T/C [23]: 67.2%
viability, T/C [24]: 46.4%
viability, T/C (second compound 10 µM, first compound 3.16 µM): 24.8%
viability, T/C (second compound 10 µM, first compound 10 µM): 18.7%
